Columns and labels:
GLP-1R = GLP-1R (Homo sapiens (Human), UniProt P43220); experiment: GLP-1R activation: cAMP increase in CHO cells stably expressing GLP-1R; assay type: cell-based; details: cAMP increase, 10 point dose response, 30 minutes incubation at 37° C., read-out: EC50
How it was run: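 CHO cells stably expressing GLP-1R were incubated 1 h at 37 °C in medium with 1% BSA, then exposed to compound in a 10-point dose response for 30 min at 37 °C. cAMP rise was detected by HTRF (Gs Dynamic kit). EC50 came from a sigmoidal fit of response against log agonist concentration.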

[1] = Microsomal stability (liver microsomal assay, mixed cofactors); predicted hepatic clearance; assay type: in vitro ADME; details: liver microsomes 1.0 mg protein/mL (+UDPGA +NADPH), 1 μM analyte, 37° C.; scaled with human liver weight and hepatic blood flow 1.3 L/hr/kg
How it was run: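 Compound at 1 μM with human or rat pooled liver microsomes, alamethicin-treated, pH 7.4 phosphate, NADPH-regenerating plus UDPGA cofactors, 37° C, sampled 0–70 min. Parent/internal standard ratio by RapidFire QToF MS; half-life from initial log-linear decay, scaled to intrinsic and predicted hepatic clearance and hepatic extraction.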

Chain of GLP-1R (P43220 24-463): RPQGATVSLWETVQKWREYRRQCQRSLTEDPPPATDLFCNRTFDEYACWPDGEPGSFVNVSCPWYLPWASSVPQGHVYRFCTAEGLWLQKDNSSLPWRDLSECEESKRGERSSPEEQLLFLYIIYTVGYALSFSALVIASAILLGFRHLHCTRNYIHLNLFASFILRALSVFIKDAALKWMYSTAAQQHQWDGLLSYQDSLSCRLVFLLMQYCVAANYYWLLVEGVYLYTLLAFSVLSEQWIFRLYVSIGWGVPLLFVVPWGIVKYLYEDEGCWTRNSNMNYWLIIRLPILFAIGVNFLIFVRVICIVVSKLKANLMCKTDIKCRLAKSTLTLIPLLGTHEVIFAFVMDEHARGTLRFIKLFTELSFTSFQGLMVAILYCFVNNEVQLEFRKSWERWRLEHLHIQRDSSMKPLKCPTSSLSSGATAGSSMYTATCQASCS

**Q.** With `CC1(c2ccc(Cl)cn2)Oc2cccc(-c3cc(F)c(Cc4nc5ccc(C(=O)O)cc5n4CC4(CC#N)CC4)c(F)c3)c2O1` (centres unmarked) [Example 24, 2-(4-(2-(5-chloropyridin-2-yl)-2-methylbenzo[d][1, 3]dioxol-4-yl)-2,6-difluorobenzyl)-1-((1-(cyanomethyl)cyclo-propyl)methyl)-1H-benzo[d]imidazole 6-carboxylic acid] as the compound, how does the EC50 (GLP-1R) read?
**A.** 1.7 nM

**Q.** And the “Predicted Hepatic Clearance (Pred. Cl.)” value [1]?
**A.** 2.67 mL/min/kg

**Q.** For `COCCn1c(Cc2c(F)cc(-c3cccc4c3OC(C)(c3ccc(C#N)cc3F)O4)c(F)c2F)nc2ccc(C(=O)O)cc21` (single isomer, unassigned) [Example 97, 2-(4-(2-(4-cyano-2-fluorophenyl)-2-methylbenzo[d][1, 3]dioxol-4-yl)-2,3,6-trifluorobenzyl)-1-(2-methoxyethyl)-1H-benzo[d]imidazole-6-carboxylic acid], which EC50 (GLP-1R) is on record?
**A.** 1.9 nM

**Q.** And the “Predicted Hepatic Clearance (Pred. Cl.)” value [1]?
**A.** 15.2 mL/min/kg

**Q.** For `CC1(c2ccc(Cl)cc2F)Oc2cccc(-c3ccc(Cc4nc5ccc(C(=O)O)cc5n4C[C@@H]4CCO4)cc3F)c2O1` (stereo partly drawn) [Example 15, 2-(4-(2-(4-chloro-2-fluorophenyl)-2-methylbenzo[d][1, 3]dioxol-4-yl)-3-fluorobenzyl)-1-(((S)-oxetan-2-yl)methyl)-1H-benzo[d]imidazole-6-carboxylic acid], which EC50 (GLP-1R) is on record?
**A.** 0.015 nM

**Q.** What about the “Predicted Hepatic Clearance (Pred. Cl.)” value [1] of the same compound?
**A.** 4.5 mL/min/kg

**Q.** For `COCCn1c(Cc2ccc(-c3cccc4c3OC(c3ccc(Cl)cc3F)C4)cc2F)nc2ccc(C(=O)O)cc21` (centres unmarked) [Example 79, 2-(4-(2-(4-chloro-2-fluorophenyl)-2,3-dihydrobenzofuran-7-yl)-2-fluorobenzyl)-1-(2-methoxyethyl)-1H-benzo[d]imidazole-6-carboxylic acid], which EC50 (GLP-1R) is on record?
**A.** 738 nM

**Q.** What about the “Predicted Hepatic Clearance (Pred. Cl.)” value [1] of the same compound?
**A.** 2.33 mL/min/kg

**Q.** Which results are given for `COCCn1c(Cc2c(F)cc(-c3cccc4c3OC(C)(c3ccc(Cl)cc3OC)O4)cc2F)nc2ccc(C(=O)O)cc21` (centres unmarked) [Example 60, 2-(4-(2-(4-chloro-2-methoxyphenyl)-2-methylbenzo[d][1, 3]dioxol-4-yl)-2,6-difluorobenzyl)-1-(2-methoxyethyl)-1H-benzo[d]imidazole-6-carboxylic acid]?
**A.** EC50 (GLP-1R): 3.8 nM; Predicted Hepatic Clearance (Pred. Cl.) [1]: 3.5 mL/min/kg

**Q.** With `COCCn1c(Cc2ccc(-c3cccc4c3OC(c3ccc(C#N)cc3)O4)cc2F)nc2ccc(C(=O)O)cc21` (centres unmarked) [Example 6, 2-(4-(2-(4-cyanophenyl)benzo[d][1, 3]dioxol-4-yl)-2-fluorobenzyl)-1-(2-methoxyethyl)-1H-benzo[d]imidazole-6-carboxylic acid] as the compound, how does the EC50 (GLP-1R) read?
**A.** 219 nM

**Q.** What about the “Predicted Hepatic Clearance (Pred. Cl.)” value [1] of the same compound?
**A.** 4.83 mL/min/kg

**Q.** For `CC1(c2ccc(Cl)cn2)Oc2cccc(-c3cc(F)c(Cc4nc5ccc(C(=O)O)cc5n4C[C@@H]4CCO4)cc3F)c2O1` (single isomer, unassigned) [Example 46], which EC50 (GLP-1R) is on record?
**A.** 17 nM

**Q.** And the “Predicted Hepatic Clearance (Pred. Cl.)” value [1]?
**A.** 4.33 mL/min/kg

**Q.** For `O=C(O)c1ccc2nc(Cc3c(F)cc(-c4cccc5c4CN(c4ccc(Cl)cc4F)C5)cc3F)n(C[C@@H]3CCO3)c2c1` [Example 71, (S)-2-(4-(2-(4-chloro-2-fluorophenyl)isoindolin-4-yl)-2,6-difluorobenzyl)-1-(oxetan-2-ylmethyl)-1H-benzo[d]imidazole-6-carboxylic acid], which EC50 (GLP-1R) is on record?
**A.** 10000 nM

**Q.** What about the “Predicted Hepatic Clearance (Pred. Cl.)” value [1] of the same compound?
**A.** 3.83 mL/min/kg

**Q.** For `COCCn1c(Cc2c(F)cc(-c3cccc4c3OC(C)(c3ccc(C#N)cn3)O4)cc2F)nc2ccc(C(=O)O)cc21` (centres unmarked) [Example 66, 2-(4-(2-(5-cyanopyridin-2-yl)-2-methylbenzo[d][1, 3]dioxol-4-yl)-2,6-difluorobenzyl)-1-(2-methoxyethyl)-1H-benzo[d]imidazole-6-carboxylic acid], which EC50 (GLP-1R) is on record?
**A.** 21 nM

**Q.** What about the “Predicted Hepatic Clearance (Pred. Cl.)” value [1] of the same compound?
**A.** 7.17 mL/min/kg

**Q.** Which results are given for `COCCn1c(Cc2ccc(-c3cccc4c3OC(C)(c3ccc(Cl)cc3F)O4)nc2OC)nc2ccc(C(=O)O)cc21` (centres unmarked) [Example 85, 2-((6-(2-(4-chloro-2-fluorophenyl)-2-methylbenzo[d][1, 3]dioxol-4-yl)-2-methoxypyridin-3-yl)methyl)-1-(2-methoxyethyl)-1H-benzo[d]imidazole-6-carboxylic acid]?
**A.** EC50 (GLP-1R): 168 nM; Predicted Hepatic Clearance (Pred. Cl.) [1]: 3 mL/min/kg

**Q.** With `COCCn1c(Cc2ccc(-c3cccc4c3OC(C)(c3ccc(Cl)cc3F)O4)s2)nc2ccc(C(=O)O)cc21` (centres unmarked) [Example 8, 2-((5-(2-(4-chloro-2-fluorophenyl)-2-methylbenzo[d][1, 3]dioxol-4-yl)thiophen-2-yl)methyl)-1-(2-methoxyethyl)-1H-benzo[d]imidazole-6-carboxylic acid] as the compound, how does the EC50 (GLP-1R) read?
**A.** 78 nM

**Q.** And the “Predicted Hepatic Clearance (Pred. Cl.)” value [1]?
**A.** 7.83 mL/min/kg

**Q.** What does the source list for `CC1(c2ccc(Cl)cc2F)Oc2cccc(-c3ccc(Cc4nc5ccc(C(=O)O)cc5n4C[C@@H]4CCO4)c(F)c3)c2O1` (stereo partly drawn) [Example 23, 2-(4-(2-(4-chloro-2-fluorophenyl)-2-methylbenzo[d][1, 3]dioxol-4-yl)-2-fluorobenzyl)-1-(((S)-oxetan-2-yl)methyl)-1H-benzo[d]imidazole-6-carboxylic acid]?
**A.** EC50 (GLP-1R): 0.49 nM; Predicted Hepatic Clearance (Pred. Cl.) [1]: 2.33 mL/min/kg

**Q.** Which results are given for `CC1(c2ccc(Cl)cn2)Oc2cccc(-c3cc(F)c(Cc4nc5ccc(C(=O)O)cc5n4C[C@@H]4CCO4)c(F)c3)c2O1` (single isomer, unassigned) [Example 49]?
**A.** EC50 (GLP-1R): 0.31 nM; Predicted Hepatic Clearance (Pred. Cl.) [1]: 3.33 mL/min/kg
